Measured values taken from patent US20220356174A1, “PYRIDIN-2-ONE COMPOUNDS USEFUL AS SMARCA2 ANTAGONISTS” (Epizyme, Inc., priority 2018, published 2022).
Read-outs that look alike come from different tables or passages of the source.

Assays:
[1] = target: T1, FL-SMARCA2 (full-length human SMARCA2 isoform 1) (Homo sapiens, UniProt P51531); test: SMARCA2 ATPase activity assay (ADP-Glo, chicken mononucleosome substrate); assay type: biochemical; details: ATP 250 uM
T1 construct: FLAG tag (YKDDDDK) (C); made in house; host or cells: Sf21 insect cells (baculovirus, pFastBacI)
T1 sequence (P51531 with tags, fused parts or gaps): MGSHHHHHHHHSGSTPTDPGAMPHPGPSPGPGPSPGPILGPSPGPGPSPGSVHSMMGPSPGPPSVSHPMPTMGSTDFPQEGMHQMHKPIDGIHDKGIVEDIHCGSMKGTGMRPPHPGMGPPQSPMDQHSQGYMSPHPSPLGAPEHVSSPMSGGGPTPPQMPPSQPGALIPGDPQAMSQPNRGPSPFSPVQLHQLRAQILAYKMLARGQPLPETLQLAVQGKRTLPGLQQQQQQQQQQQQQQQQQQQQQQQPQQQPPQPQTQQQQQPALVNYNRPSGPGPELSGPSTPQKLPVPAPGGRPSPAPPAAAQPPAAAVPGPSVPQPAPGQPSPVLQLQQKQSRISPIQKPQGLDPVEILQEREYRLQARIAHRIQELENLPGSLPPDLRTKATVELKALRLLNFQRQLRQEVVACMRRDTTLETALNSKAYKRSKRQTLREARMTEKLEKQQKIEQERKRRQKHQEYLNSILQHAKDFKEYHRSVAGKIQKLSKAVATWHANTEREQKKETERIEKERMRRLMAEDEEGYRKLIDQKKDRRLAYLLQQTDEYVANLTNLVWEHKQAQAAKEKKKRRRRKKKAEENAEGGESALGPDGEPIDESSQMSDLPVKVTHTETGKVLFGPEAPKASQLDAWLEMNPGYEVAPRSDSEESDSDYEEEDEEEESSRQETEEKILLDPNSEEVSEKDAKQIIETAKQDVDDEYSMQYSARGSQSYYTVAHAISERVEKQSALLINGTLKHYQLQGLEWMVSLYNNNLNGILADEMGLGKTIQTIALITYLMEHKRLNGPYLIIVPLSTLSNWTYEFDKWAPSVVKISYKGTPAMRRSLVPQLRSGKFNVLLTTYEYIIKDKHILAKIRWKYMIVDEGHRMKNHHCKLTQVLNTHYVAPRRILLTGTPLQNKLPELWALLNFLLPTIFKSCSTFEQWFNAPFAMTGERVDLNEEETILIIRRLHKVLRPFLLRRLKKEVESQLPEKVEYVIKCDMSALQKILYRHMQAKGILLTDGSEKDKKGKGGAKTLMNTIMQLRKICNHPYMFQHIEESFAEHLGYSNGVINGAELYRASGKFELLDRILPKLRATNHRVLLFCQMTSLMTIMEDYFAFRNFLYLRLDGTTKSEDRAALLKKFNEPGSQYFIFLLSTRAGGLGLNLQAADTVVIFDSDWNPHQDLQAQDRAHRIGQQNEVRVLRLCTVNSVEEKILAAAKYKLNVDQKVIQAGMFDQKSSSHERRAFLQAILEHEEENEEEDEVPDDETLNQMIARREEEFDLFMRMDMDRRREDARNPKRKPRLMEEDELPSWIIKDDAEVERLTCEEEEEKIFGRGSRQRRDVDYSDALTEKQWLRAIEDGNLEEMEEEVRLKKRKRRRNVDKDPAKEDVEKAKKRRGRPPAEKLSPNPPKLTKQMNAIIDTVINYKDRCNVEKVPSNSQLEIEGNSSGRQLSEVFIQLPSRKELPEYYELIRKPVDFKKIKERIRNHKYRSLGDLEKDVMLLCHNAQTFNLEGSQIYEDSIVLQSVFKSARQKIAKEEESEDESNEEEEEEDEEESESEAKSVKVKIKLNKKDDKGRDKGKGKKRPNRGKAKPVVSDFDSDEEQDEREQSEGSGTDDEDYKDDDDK

[2] = target: FL-SMARCA4 (Homo sapiens, UniProt P51532); test: SMARCA4 ATPase activity assay (ADP-Glo, chicken mononucleosome substrate)
FL-SMARCA4, sequence (P51532 whole entry): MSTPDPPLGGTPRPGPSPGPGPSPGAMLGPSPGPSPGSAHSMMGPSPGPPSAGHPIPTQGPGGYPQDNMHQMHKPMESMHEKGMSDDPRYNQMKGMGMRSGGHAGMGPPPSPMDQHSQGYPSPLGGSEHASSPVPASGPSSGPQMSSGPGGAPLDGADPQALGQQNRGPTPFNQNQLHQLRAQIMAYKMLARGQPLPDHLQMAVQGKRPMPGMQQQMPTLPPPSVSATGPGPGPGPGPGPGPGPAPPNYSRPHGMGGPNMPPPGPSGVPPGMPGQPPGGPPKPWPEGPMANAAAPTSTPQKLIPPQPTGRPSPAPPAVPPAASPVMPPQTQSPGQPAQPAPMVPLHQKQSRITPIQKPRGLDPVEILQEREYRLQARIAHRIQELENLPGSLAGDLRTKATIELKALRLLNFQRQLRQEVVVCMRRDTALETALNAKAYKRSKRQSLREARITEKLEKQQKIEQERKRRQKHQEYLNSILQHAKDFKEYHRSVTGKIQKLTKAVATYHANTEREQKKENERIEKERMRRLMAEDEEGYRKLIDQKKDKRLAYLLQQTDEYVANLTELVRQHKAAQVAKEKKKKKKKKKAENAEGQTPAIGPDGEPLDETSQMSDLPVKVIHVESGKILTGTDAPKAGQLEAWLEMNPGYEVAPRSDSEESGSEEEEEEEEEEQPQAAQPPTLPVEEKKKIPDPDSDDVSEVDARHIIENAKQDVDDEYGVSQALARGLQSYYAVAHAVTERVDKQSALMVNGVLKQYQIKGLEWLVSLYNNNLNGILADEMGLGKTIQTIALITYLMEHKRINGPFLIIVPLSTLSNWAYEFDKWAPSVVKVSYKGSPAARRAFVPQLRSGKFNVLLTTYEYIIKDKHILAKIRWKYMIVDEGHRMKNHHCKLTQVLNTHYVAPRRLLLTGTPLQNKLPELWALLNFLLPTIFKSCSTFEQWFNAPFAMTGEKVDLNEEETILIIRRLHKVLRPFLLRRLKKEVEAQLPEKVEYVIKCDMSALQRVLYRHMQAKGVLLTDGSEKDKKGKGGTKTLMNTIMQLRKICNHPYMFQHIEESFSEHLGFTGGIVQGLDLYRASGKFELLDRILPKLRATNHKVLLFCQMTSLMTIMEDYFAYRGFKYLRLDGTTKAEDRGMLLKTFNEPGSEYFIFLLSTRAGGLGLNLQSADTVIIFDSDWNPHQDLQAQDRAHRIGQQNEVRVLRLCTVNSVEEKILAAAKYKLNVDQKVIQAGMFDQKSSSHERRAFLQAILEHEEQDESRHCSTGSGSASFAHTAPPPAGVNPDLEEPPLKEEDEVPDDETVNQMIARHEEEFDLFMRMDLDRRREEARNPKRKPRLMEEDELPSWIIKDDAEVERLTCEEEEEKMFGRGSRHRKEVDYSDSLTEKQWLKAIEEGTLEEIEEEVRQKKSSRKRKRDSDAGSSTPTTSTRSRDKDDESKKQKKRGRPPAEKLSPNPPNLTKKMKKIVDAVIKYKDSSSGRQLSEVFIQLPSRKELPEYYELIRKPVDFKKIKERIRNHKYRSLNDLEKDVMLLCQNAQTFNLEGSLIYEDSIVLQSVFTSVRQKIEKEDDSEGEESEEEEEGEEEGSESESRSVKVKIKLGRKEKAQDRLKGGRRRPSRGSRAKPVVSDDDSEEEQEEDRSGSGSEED

[3] = Table 3.1, ATPase assay, enzyme 5 nM, chicken mononucleosome 10 nM, 30 min preincubation
[4] = FL-SMARCA4 IC50, Table 3.2, ATPase assay, enzyme 5 nM, ATP 250 uM, chicken mononucleosome 10 nM, 30 min preincubation
[5] = Table 3d.1, ATPase assay, enzyme 5 nM, chicken mononucleosome 10 nM, 30 min preincubation, read-out: FL-SMARCA2 IC>50
[6] = Table 3c.1, ATPase assay, enzyme 5 nM, chicken mononucleosome 10 nM, 30 min preincubation
[7] = FL-SMARCA4 IC>50, Table 3c.2, ATPase assay, enzyme 5 nM, ATP 250 uM, chicken mononucleosome 10 nM, 30 min preincubation
[8] = Table 3a.1, SMARCA2 5 nM, mononucleosome 10 nM
[9] = FL-SMARCA4 IC50, Table 3a.2, SMARCA4 5 nM, ATP 250 uM, mononucleosome 10 nM

| IC50 [1, 3] | IC50 [2, 4] | Structure (SMILES) | further results |
| --- | --- | --- | --- |
| 29.9 µM | > 50 µM | Cn1c(C(=O)Nc2cc(C#N)c(=O)n(CC(F)(F)F)c2)cnc1Cl [Compound 214] | – |
| – | – | CCn1cc(NC(=O)CC2CCOCC2)ccc1=O [Compound 9d] | IC50 [1, 5]: > 50 µM; IC50 ([2]; FL-SMARCA4 IC50): > 50 µM |
| 2.88 µM | 13.5 µM | O=C(Nc1cc(F)c(=O)n(CC(F)F)c1)c1cc(-c2nnco2)c(Cl)s1 [Compound 318] | – |
| > 50 µM | 16.7 µM | CCn1cc(NC(=O)c2ccn(C)c2Cl)ccc1=O [Compound 115] | – |
| – | – | O=C(Nc1cc(F)c(=O)n(CC(F)F)c1)C1CCC(C(F)(F)F)O1 (centres unmarked) [Compound 135c] | IC50 [1, 6]: 39.5 µM; IC50 [2, 7]: 35.8 µM |
| – | – | N#Cc1cc(C(=O)Nc2cc(F)c(=O)n(CC(F)F)c2)sc1C1(F)CC1 [Compound 94d] | IC50 [1, 5]: 1.77 µM; IC50 ([2]; FL-SMARCA4 IC50): 17.9 µM |
| 0.437 µM | 1.52 µM | O=C(Nc1ccc(=O)n(CC(F)(F)F)c1)c1cc(Cl)c(Cl)s1 [Compound 75] | – |
| – | – | CCn1cc(NC(=O)c2cc(C(F)(F)F)ccn2)ccc1=O [Compound 59a] | IC50 [1, 8]: > 50 µM; IC50 [2, 9]: > 50 µM |
| > 50 µM | > 50 µM | CCn1cc(NC(=O)c2nc(Cl)cs2)ccc1=O [Compound 63] | – |
| – | – | CN1C(=O)CCCC1C(=O)Nc1cc(F)c(=O)n(CCF)c1 (centres unmarked) [Compound 48a] | IC50 [1, 8]: > 50 µM; IC50 [2, 9]: > 50 µM |
| – | – | O=C(Nc1cc(-c2ncco2)c(=O)n(CC(F)F)c1)c1cc(Cl)c(C(F)(F)F)s1 [Compound 102c] | IC50 [1, 6]: > 50 µM; IC50 [2, 7]: > 50 µM |
| > 50 µM | > 50 µM | CCn1cc(NC(=O)c2c(C)noc2C)ccc1=O [Compound 14] | – |
| – | – | CO[C@H]1C[C@@H](C(=O)Nc2ccc(=O)n(C)c2)N(C)C1 [Compound 10a] | IC50 [1, 8]: > 50 µM; IC50 [2, 9]: > 50 µM |
| – | – | O=C(Nc1cc(-c2cnco2)c(=O)n(CC(F)F)c1)c1cc(Cl)c(C(F)(F)F)s1 [Compound 101c] | IC50 [1, 6]: > 50 µM; IC50 [2, 7]: > 50 µM |
| – | – | CO[C@@H]1CN[C@H](C(=O)Nc2cc(Br)c(=O)n(C)c2)C1 [Compound 9a] | IC50 [1, 8]: > 50 µM; IC50 [2, 9]: > 50 µM |
| > 50 µM | > 50 µM | COCCn1cc(NC(=O)c2cnn(-c3ccccc3C)c2C)ccc1=O [Compound 9] | – |
| – | – | O=C(Nc1cc(F)c(=O)n(CC(F)F)c1)c1nc(Cl)c(Cl)[nH]1 [Compound 39d] | IC50 [1, 5]: > 50 µM; IC50 ([2]; FL-SMARCA4 IC50): > 50 µM |

| IC50 [1, 3] | IC50 [2, 4] | Structure (SMILES) | further results |
| --- | --- | --- | --- |
| – | – | CCn1cc(NC(=O)n2ncc3ccccc32)ccc1=O [Compound 31a] | IC50 [1, 8]: > 50 µM; IC50 [2, 9]: > 50 µM |
| 0.071 µM | 0.492 µM | N#Cc1cc(C(=O)Nc2cc(Cl)c(=O)n(CCF)c2)sc1Cl [Compound 215] | – |
| 0.343 µM | 1.07 µM | CCn1cc(NC(=O)c2cc(Cl)n[nH]2)cc(F)c1=O [Compound 165] | – |
| 0.151 µM | 0.562 µM | N#Cc1cc(C(=O)Nc2ccc(=O)n(CC(F)F)c2)sc1Cl [Compound 320] | – |
| 5.81 µM | 47.1 µM | O=C(Nc1cc(F)c(=O)n(CCF)c1)c1cc(Cl)c(Cl)o1 [Compound 254] | – |
| > 50 µM | > 50 µM | Cc1cc(NC(=O)c2cc(Cl)c(Cl)s2)cn(C)c1=O [Compound 177] | – |
| – | – | Cn1cc(-c2cc(NC(=O)c3cc(Cl)c(C(F)(F)F)s3)cn(CC(F)F)c2=O)cn1 [Compound 14c] | IC50 [1, 6]: > 50 µM; IC50 [2, 7]: > 50 µM |
| – | – | Cn1ccnc1-c1cc(NC(=O)c2cc(Cl)c(C(F)(F)F)s2)cn(CC(F)F)c1=O [Compound 88c] | IC50 [1, 6]: > 50 µM; IC50 [2, 7]: > 50 µM |
| 0.602 µM | 1.88 µM | N#Cc1cc(C(=O)Nc2cc(F)c(=O)n(CCF)c2)[nH]c1Cl [Compound 229] | – |
| 0.281 µM | 0.831 µM | N#Cc1cc(C(=O)Nc2ccc(=O)n(CC(F)(F)F)c2)sc1Cl [Compound 197] | – |
| 1.45 µM | 6.28 µM | Cn1c(C(=O)Nc2cc(F)c(=O)n(CC(F)(F)F)c2)cnc1C#N [Compound 221] | – |
| – | – | Cn1cnc2cc(C(=O)Nc3cc(F)c(=O)n(CCF)c3)[nH]c2c1=O [Compound 48d] | IC50 [1, 5]: > 50 µM; IC50 ([2]; FL-SMARCA4 IC50): > 50 µM |
| – | – | O=C(Nc1cc(F)c(=O)n(CC(F)F)c1)c1ccc(-c2ccccn2)s1 [Compound 34d] | IC50 [1, 5]: > 50 µM; IC50 ([2]; FL-SMARCA4 IC50): > 50 µM |
| 10.6 µM | 42.6 µM | O=C(Nc1cc(F)c(=O)n(CCF)c1)c1cc(Cl)c(C(O)C(F)(F)F)s1 (centres unmarked) [Compound 289] | – |
| > 50 µM | > 50 µM | O=C(Nc1cc(F)c(=O)n(CCF)c1)c1cnc(-n2ccnc2C(F)(F)F)s1 [Compound 281] | – |
| – | – | COCc1cc(NC(=O)c2cc(F)c(Cl)s2)cn(CC(F)F)c1=O [Compound 3c] | IC50 [1, 6]: 40 µM; IC50 [2, 7]: > 50 µM |
| – | – | N#Cc1ccc(C(=O)Nc2cc(F)c(=O)n(CCF)c2)cc1C#N [Compound 20b] | IC50 ([1]; Table 3b.1, SMARCA2 5 nM, mononucleosome 10 nM): 2.46 µM; IC50 ([2]; FL-SMARCA4 IC50, Table 3b.2, SMARCA4 5 nM, ATP 250 uM, mononucleosome 10 nM): 11.5 µM |
